Assay results: PMC10530836, “Synthesis, Molecular Docking, and Biological Evaluation of Novel Anthranilic Acid Hybrid and Its Diamides as Antispasmodics” (International Journal of Molecular Sciences, 2023)
Read-outs that look alike come from different tables or passages of the source.

Tests used:
MTT cell viability assay [1] = type: cell-based, murine; details: mouse, CCL-1 normal fibroblast cells (adherent); CCL-1, MTT, 72 h exposure, ± SD; read-out: In vitro cytotoxicity IC50
Experimental: (§1) To evaluate the biocompatibility of the hybrid compounds, their in vitro antiproliferative activity was assessed in a panel of human malignant cell lines of different origin (K-562 and LAMA-84 suspension-growing myeloid leukemia cells, positive for the Philadelphia chromosome, and the urothelial bladder carcinoma cell line T-24 of adherent type). Non-malignant murine fibroblast cells (CCL-1) were also used as a screening platform. All cell lines were purchased from the German Collection of Microorganisms and Cell Cultures (DSMZ GmbH, Braunschweig, Germany). Cell cultures were cultivated in a growth medium RPMI 1640 supplemented with 10% fetal bovine serum (FBS), and 5% L-glutamine and were incubated under standard conditions of 37 °C and 5% humidified CO2 atmosphere. The effects of the newly synthesized anthranilic derivatives on cell viability were measured using a validated colorimetric assay for evaluating cell viability, known as the Mosmann MTT method. Exponential-phased cells were harvested and seeded (100 μL/well) in 96-well plates at the appropriate density (3 × 10^5 for the suspension cultures LAMA-84 and K-562 and 1.5 × 10^5 for the adherent T-24 and CCL-1 cells). Following a 24 h incubation, cells were treated with various concentrations of the experimental compounds in the concentration range of 200–12.5 μM. After an exposure time of 72 h, filter-sterilized MTT substrate solution (5 mg/mL in PBS) was added to each well of the culture plate. A further 2–4 h incubation allowed for the formation of purple insoluble formazan crystals. The latter was dissolved in isopropyl alcohol solution containing 5% formic acid prior to absorbance measurement at 550 nm. Collected absorbance values were blanked against MTT and isopropanol solution and normalized to the mean value of untreated control (100% cell viability).

[2] = system: Klebsiella pneumoniae ATCC 13883; experiment: Antimicrobial activity, agar well diffusion; type: cell-based; details: Dose 0.6 mg/disk, dwell = 6 mm
[3] = system: Pseudomonas aeruginosa ATCC 9027; experiment: Antimicrobial activity, agar well diffusion; type: cell-based; details: Dose 0.6 mg/disk, dwell = 6 mm
Source text: (§2) Twenty tested microorganisms including six Gram-positive bacteria (Bacillus subtilis ATCC 6633, Bacillus amyloliquefaciens 4BCL-YT, Staphylococcus aureus ATCC 25923, Listeria monocytogenes NBIMCC 8632, Enterococcus faecalis ATCC 19433), six Gram-negative bacteria (Salmonella enteritidis ATCC 13076, Klebsiella sp.—clinical isolate, Escherichia coli ATCC 25922, Proteus vulgaris ATCC 6380, Pseudomonas aeruginosa ATCC 9027), two yeasts (Candida albicans NBIMCC 74, Saccharomyces cerevisiae ATCC 9763), and six fungi (Aspergillus niger ATCC 1015, Aspergillus flavus, Penicillium sp., Rhizopus sp., Mucor sp.—plant isolates, Fusarium moniliforme ATCC 38932) from the collection of the Department of Microbiology at the University of Food Technologies—Plovdiv, Bulgaria, were selected for the antimicrobial activity test. The antimicrobial activity of the samples was determined by the agar well diffusion method. The tested bacteria B. subtilis and B. amyloliquefaciens were cultured on LBG agar at 30 °C. The test bacteria S. aureus, L. monocytogenes, E. faecalis, S. enteritidis, Klebsiella sp., E. coli, P. vulgaris, and P. aeruginosa were cultured on LBG agar at 37 °C for 24 h. The yeast C. albicans was cultured on MEA at 37 °C, while S. cerevisiae was cultured on MEA at 30 °C for 24 h. The fungi A. niger, A. flavus, Penicillium sp., Rhizopus sp., Mucor sp., and F. moniliforme were grown on MEA at 30 °C for 7 days or until sporulation. The inocula of the tested bacteria/yeasts was prepared by homogenization of a small amount of biomass in 5 mL of sterile 0.5% NaCl. The inocula of tested fungi were prepared by the addition of 5 mL of sterile 0.5% NaCl into the tubes. After stirring by vortex V-1 plus (Biosan), they were filtered and replaced in other tubes before use. The number of viable cells and fungal spores was determined using a bacterial counting chamber Thoma (Poly-Optik, GmbH, Bad Blankenburg, Germany). Their final concentrations were adjusted to 10^8 cfu/mL for bacterial/yeast cells and 10^5 cfu/mL for fungal spores and then inoculated in preliminarily melted and tempered at 45–48 °C LBG/MEA agar media. Next, the inoculated media were transferred in a quantity of 18 mL in sterile Petri plates (d = 90 mm) (Gosselin™, Hazebrouck, France) and allowed to harden. Then, six wells (d = 6 mm) per plate were cut, and triplicates of 60 μL of each extract were pipetted into the agar wells. The Petri plates were incubated in identical conditions. The antimicrobial activity was determined by measuring the diameter of the inhibition zones around the wells on the 24th and 48th h of incubation. Tested microorganisms with inhibition zones of 18 mm or more were considered sensitive; moderately sensitive were those in which the zones were from 12 to 18 mm; resistant were those in which the inhibition zones were up to 12 mm or completely missing.

Penicillium chrysogenum = experiment: Antimicrobial activity, agar well diffusion; type: cell-based; details: Dose 0.6 mg/disk, dwell = 6 mm
Source text: as §2

[4] = system: Micrococcus luteus 2YC-YT; experiment: Antimicrobial activity, agar well diffusion; type: cell-based; details: Dose 0.6 mg/disk, dwell = 6 mm
Source text: as §2

[5] = system: Listeria monocytogenes NBIMCC 8632; experiment: Antimicrobial activity, agar well diffusion; type: cell-based; details: Dose 0.6 mg/disk, dwell = 6 mm
Source text: as §2

[6] = system: Proteus vulgaris ATCC 6380; experiment: Antimicrobial activity, agar well diffusion; type: cell-based; details: Dose 0.6 mg/disk, dwell = 6 mm
Source text: as §2

[7] = system: Salmonella typhimurium NBIMCC 1672; experiment: Antimicrobial activity, agar well diffusion; type: cell-based; details: Dose 0.6 mg/disk, dwell = 6 mm
Source text: as §2

[8] = system: Aspergillus niger ATCC 1015; experiment: Antimicrobial activity, agar well diffusion; type: cell-based; details: Dose 0.6 mg/disk, dwell = 6 mm
Source text: as §2

[9] = system: Bacillus subtilis ATCC 6633; experiment: Antimicrobial activity, agar well diffusion; type: cell-based; details: Dose 0.6 mg/disk, dwell = 6 mm
Source text: as §2

[10] = system: Escherichia coli ATCC 25922; experiment: Antimicrobial activity, agar well diffusion; type: cell-based; details: Dose 0.6 mg/disk, dwell = 6 mm
Source text: as §2

Aspergillus flavus = experiment: Antimicrobial activity, agar well diffusion; type: cell-based; details: Dose 0.6 mg/disk, dwell = 6 mm
Source text: as §2

Rhizopus sp. = experiment: Antimicrobial activity, agar well diffusion; type: cell-based; details: Dose 0.6 mg/disk, dwell = 6 mm
Source text: as §2

[11] = system: Salmonella enteritidis ATCC 13076; experiment: Antimicrobial activity, agar well diffusion; type: cell-based; details: Dose 0.6 mg/disk, dwell = 6 mm
Source text: as §2

[12] = system: Enterococcus faecalis ATCC 29212; experiment: Antimicrobial activity, agar well diffusion; type: cell-based; details: Dose 0.6 mg/disk, dwell = 6 mm
MTT cell viability assay [13] = type: cell-based; details: human, 72 h exposure, ± SD, read-out: In vitro cytotoxicity IC50
Experimental: as §1

[14] = system: Bacillus amyloliquefaciens 4BCL-YT; experiment: Antimicrobial activity, agar well diffusion; type: cell-based; details: Dose 0.6 mg/disk, dwell = 6 mm
Source text: as §2

[15] = system: Staphylococcus aureus ATCC 25923; experiment: Antimicrobial activity, agar well diffusion; type: cell-based; details: Dose 0.6 mg/disk, dwell = 6 mm
Source text: as §2

[16] = K-562 myeloid leukemia cells (suspension), K-562, MTT
[17] = LAMA-84 myeloid leukemia cells (suspension), LAMA-84, MTT
[18] = T-24 urothelial bladder carcinoma cells (adherent), T-24, MTT

| SMILES | IC50 at 72 h (MTT cell viability assay [1]) [µM] | Inhibition Zones [2] [mm] | Inhibition Zones [3] [mm] | Inhibition Zones (Penicillium chrysogenum) [mm] | Inhibition Zones [4] [mm] | Inhibition Zones [5] [mm] | Inhibition Zones [6] [mm] | Inhibition Zones [7] [mm] | Inhibition Zones [8] [mm] | Inhibition Zones [9] [mm] | Inhibition Zones [10] [mm] | Inhibition Zones (Aspergillus flavus) [mm] | Inhibition Zones (Rhizopus sp.) [mm] | Inhibition Zones [11] [mm] | Inhibition Zones [12] [mm] | IC50 at 72 h (MTT cell viability assay [13]; [16]) [µM] | IC50 at 72 h (MTT cell viability assay [13]; [17]) [µM] | IC50 at 72 h (MTT cell viability assay [13]; [18]) [µM] | Inhibition Zones [14] [mm] | Inhibition Zones [15] [mm] |
| --- | --- | --- | --- | --- | --- | --- | --- | --- | --- | --- | --- | --- | --- | --- | --- | --- | --- | --- | --- | --- |
| CC(=O)Nc1ccccc1C(=O)NCCc1cccc(Cl)c1 [Compound 4a, 2-acetamido-N-(3-chlorophenethyl)benzamide] | > 200 | 14 | 9 | 13 | 10 | 8 | 8 | 8 | 10 | 8 | 9 | 8 | 8 | 12 | 12 | > 200 | 112 ± 9.4 | > 200 |  |  |
| O=C(Nc1ccccc1C(=O)NCCc1cccc(Cl)c1)c1ccccc1 [Compound 4b, 2-benzamido-N-(3-chlorophenethyl)benzamide] | > 200 |  | 10 | 15 | 15 | 12 | 8 | 8 | 11 | 11 | 11 | 13 | 11 | 8 | 8 | 55.2 ± 4.7 | 60.7 ± 5.3 | 94.9 ± 5 | 10 | 8 |
| Nc1ccccc1C(=O)NCCc1cccc(Cl)c1 [Compound 3, 2-amino-N-(3-chlorophenethyl)benzamide] | > 200 | 8 | 14 | 20 | 19 | 12 | 8 | 12 | 20 | 12 | 13 | 20 | 20 | 12 | 12 | 154 ± 11.1 | 115 ± 10.5 | 137 ± 12.5 | 11 | 8 |
